Test results published in PubChem BioAssay (NCI).
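Dose response: 5 concentrations. Exposure: 48 h. Format: 96-well plates. Endpoint: linear interpolation; highest concentration if not reached. Here, GI50 denotes the concentration required for 50% inhibition of growth. TGI marks complete inhibition of growth.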

Legend:
Assay in all cases: growth of human tumour cells (NCI), 48 h
[1] = tested on: MALME-3M melanoma
[2] = tested on: SK-MEL-5 melanoma
[3] = tested on: OVCAR-5 ovarian
[4] = tested on: LOX IMVI melanoma
[5] = tested on: SNB-75 CNS
[6] = tested on: NCI-H23 lung
[7] = tested on: U251 CNS
[8] = tested on: PC-3 prostate
[9] = tested on: A498 renal
[10] = tested on: SNB-19 CNS
[11] = tested on: M14 melanoma
[12] = tested on: EKVX NSCLC
[13] = tested on: HOP-92 NSCLC
[14] = tested on: MOLT-4 leukemia
[15] = tested on: MDA-MB-435
[16] = tested on: SW-620 colon
[17] = tested on: SK-OV-3 ovarian
[18] = tested on: OVCAR-8 ovarian
[19] = tested on: HCT-116 colon
[20] = tested on: SR leukemia
[21] = tested on: MDA-MB-231 breast
[22] = tested on: MCF7 breast
[23] = tested on: CCRF-CEM leukemia
[24] = tested on: T-47D breast
[25] = tested on: SF-295 CNS
[26] = tested on: COLO 205 colon
[27] = tested on: SF-268 CNS
[28] = tested on: ACHN renal
[29] = tested on: UO-31 renal
[30] = tested on: NCI-H460 lung
[31] = tested on: HL-60(TB) leukemia
[32] = tested on: HOP-62 NSCLC
[33] = tested on: A549 NSCLC
[34] = tested on: KM12 colon
[35] = tested on: NCI-H226 lung
[36] = tested on: CAKI-1 renal
[37] = tested on: SK-MEL-28 melanoma
[38] = tested on: NCI-H522 lung
[39] = tested on: 786-0 renal
[40] = tested on: HCC-2998 colon
[41] = tested on: RPMI-8226 leukemia
[42] = tested on: UACC-62 melanoma
[43] = tested on: RXF 393 renal
[44] = tested on: OVCAR-4 ovarian
[45] = tested on: UACC-257 melanoma
[46] = tested on: SN12C renal
[47] = tested on: TK-10 renal
[48] = tested on: DU-145 prostate
[49] = tested on: HS 578T breast
[50] = tested on: IGROV1 ovarian
[51] = tested on: HT29 colon
[52] = tested on: K-562 leukemia
[53] = tested on: BT-549 breast
[54] = tested on: SK-MEL-2 melanoma
[55] = tested on: NCI/ADR-RES ovarian
[56] = tested on: SF-539 CNS

## FC(F)(F)c1cc(Br)cc(-c2cc(-c3ccc4c(c3)OCCO4)[nH]n2)c1
[1]
  GI50: 1600 nM
  TGI: > 100000 nM
[2]
  GI50: 84.1 nM
  TGI: 2540 nM
[3]
  GI50: 348 nM
  TGI: > 100000 nM
[4]
  GI50: 29.6 nM
  TGI: > 100000 nM
[5]
  GI50: 120 nM
  TGI: 925 nM
[6]
  GI50: 376 nM
  TGI: > 100000 nM
[7]
  GI50: 78.5 nM
  TGI: 4860 nM
[8]
  GI50: 70.5 nM
  TGI: > 38500 nM
[9]
  GI50: 36.3 nM
  TGI: 283 nM
[10]
  GI50: 108 nM
  TGI: > 100000 nM
[11]
  GI50: 76.5 nM
  TGI: > 38600 nM
[12]
  GI50: 645 nM
  TGI: > 100000 nM
[13]
  GI50: 1150 nM
  TGI: 5510 nM
[14]
  GI50: 196 nM
  TGI: > 100000 nM
[15]
  GI50: 26.4 nM
  TGI: 773 nM
[16]
  GI50: 54 nM
  TGI: > 100000 nM
[17]
  GI50: 124 nM
  TGI: > 56600 nM
[18]
  GI50: 213 nM
  TGI: 1470 nM
[19]
  GI50: 42.4 nM
  TGI: 1620 nM
[20]
  GI50: 36.4 nM
  TGI: > 100000 nM
[21]
  GI50: 78.5 nM
  TGI: > 100000 nM
[22]
  GI50: 59 nM
  TGI: > 100000 nM
[23]
  GI50: 87.5 nM
  TGI: > 39500 nM
[24]
  GI50: 683 nM
  TGI: > 100000 nM
[25]
  GI50: 31.8 nM
[26]
  GI50: 109 nM
  TGI: 283 nM
[27]
  GI50: 753 nM
  TGI: > 100000 nM
[28]
  GI50: 75.2 nM
  TGI: > 100000 nM
[29]
  GI50: 201 nM
  TGI: > 100000 nM
[30]
  GI50: 60.5 nM
  TGI: 13900 nM
[31]
  GI50: 33.6 nM
[32]
  GI50: 226 nM
  TGI: > 100000 nM
[33]
  GI50: 146 nM
  TGI: > 38100 nM
[34]
  GI50: 59.6 nM
  TGI: > 52100 nM
[35]
  GI50: 214 nM
  TGI: > 100000 nM
[36]
  GI50: 79.3 nM
  TGI: > 100000 nM
[37]
  GI50: 2680 nM
  TGI: > 100000 nM
[38]
  GI50: 23.6 nM
  TGI: 69.4 nM
[39]
  GI50: 56.5 nM
  TGI: 3780 nM
[40]
  GI50: 290 nM
  TGI: > 100000 nM
[41]
  GI50: 306 nM
  TGI: > 22900 nM
[42]
  GI50: 39 nM
  TGI: > 100000 nM
[43]
  GI50: 47.8 nM
  TGI: 450 nM
[44]
  TGI: > 100000 nM
[45]
  GI50: 2710 nM
  TGI: > 100000 nM
[46]
  GI50: 144 nM
  TGI: 4400 nM
[47]
  GI50: 12300 nM
  TGI: 63400 nM
[48]
  GI50: 284 nM
  TGI: > 100000 nM
[49]
  GI50: 259 nM
  TGI: > 100000 nM
[50]
  GI50: 153 nM
  TGI: > 100000 nM
[51]
  GI50: 42.6 nM
  TGI: 533 nM
[52]
  GI50: 37.3 nM
  TGI: > 100000 nM
[53]
  GI50: 56.7 nM
  TGI: 2220 nM
[54]
  GI50: 162 nM
  TGI: > 100000 nM
[55]
  GI50: 51.7 nM
  TGI: > 100000 nM
[56]
  GI50: 65.1 nM
  TGI: 757 nM
